Legend:
PD-1/PD-L1 = biological target: T1, PD-1/PD-L1 (Homo sapiens, UniProt Q9NZQ7); assay: PD-1/PD-L1 homogenous time-resolved fluorescence (HTRF) binding assay
T1 construct: Recombinant human PD-L1 protein (19-238) with a His-tag at the C-terminus; purchased AcroBiosystems PD1-H5229 (PD-L1); PD1-H5257 (PD-1)

Pharmacokinetic Assay = format: in vivo; settings: rat; male rats, single oral (intragastric) dose 25 mg/kg, plasma
Procedure: Healthy adult male rats were subjected to single-dose of the test compounds with 10% DMSO, 10% Kolliphor® HS 15 and 80% Saline as excipients, and the rats were giving oral administration (intragastric administration) with the compounds at a dose of 25 mg/kg, Before the experiment, the animals were fasted overnight, and the fasting time last from 12 hrs prior to the administration to 4 hrs after the administration. Time of blood collection: 15 min, 30 min, 1 h, 2 h, 4 h, 7 h, 24 h. Approximately 0.3 mL of whole blood was collected from retro-orbital venous sinus, and placed into tubes that contained EDTA as an anticoagulant. The samples were centrifuged at 4° C. and 4000 rpm for 5 min. The plasma was transferred into centrifuge tubes, and stored at −20° C. till being analyzed. Concentrations of test compounds in the plasma samples were analyzed with liquid chromatography-tandem mass spectrometry (LC-MS/MS). Plasma concentration-time data of individual animals was analyzed using WinNonlin (version 4.1; Pharsight) software. Non-compartmental model was introduced in concentration analysis. The pharmacokinetic parameters of the test compounds were calculated.

T1 sequence (Q9NZQ7 19-238): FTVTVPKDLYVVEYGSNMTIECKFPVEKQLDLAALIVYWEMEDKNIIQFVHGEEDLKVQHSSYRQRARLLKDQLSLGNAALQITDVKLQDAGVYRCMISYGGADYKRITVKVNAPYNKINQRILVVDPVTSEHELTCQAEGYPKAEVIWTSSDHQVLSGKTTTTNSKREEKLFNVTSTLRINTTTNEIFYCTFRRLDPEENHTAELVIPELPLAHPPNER

Row | Structure (SMILES) | IC50 (PD-1/PD-L1; Table 6, numeric values) [nM] | AUC (Pharmacokinetic Assay) [µg·h/mL] | Cmax (Pharmacokinetic Assay) [ng/mL] | Tmax (Pharmacokinetic Assay) [h] | half-life (Pharmacokinetic Assay) [h] | IC50 (PD-1/PD-L1; Table 6, class symbols) [nM]
1 | Cc1c(-c2ccccc2)cccc1-c1nc2cc(CN3CCC[C@H]3C(=O)O)c(Cl)cc2o1 [Example 20, ((6-chloro-2-(2-methyl-[1,1′-biphenyl]-3-yl)benzo[d]oxazol-5-yl)methyl)-L-proline] | 1.8 | 74.5 | 8270 | 1 | 7.52 | 
2 | Cc1cc2oc(-c3cccc(-c4ccccc4)c3C)nc2cc1CN1CCCC[C@H]1C(=O)O [Example 22, (S)-1-((6-methyl-2-(2-methyl-[1,1′-biphenyl]-3-yl)benzo[d]oxazol-5-yl)methyl)piperidine-2-carboxylic acid] | 1.8 | 151 | 10300 | 1 | 42.3 | 
3 | Cc1c(-c2ccccc2)cccc1-c1nc2cc(CN3CCC[C@H]3C(=O)O)c(C(F)(F)F)cc2o1 [Example 28, ((2-(2-methyl-[1,1′-biphenyl]-3-yl)-6-(trifluoromethyl)benzo[d]oxazol-5-yl)methyl)-L-proline] | 1.4 | 319 | 14400 | 0.3 | 41.2 | 
4 | Cc1c(-c2ccccc2)cccc1-c1nc2cc(CN3CCCC[C@H]3C(=O)O)c(OC(F)F)cc2o1 [Example 29, (S)-1-((6-(difluoromethoxy)-2-(2-methyl-[1,1′-biphenyl]-3-yl)benzo[d]oxazol-5-yl)methyl)piperidine-2-carboxylic acid] |  | 201 | 23300 | 1 | 4.27 | 0.1 to 10
5 | Cc1c(-c2ccccc2)cccc1-c1nc2cc(CN3CCC[C@H]3C(=O)O)c(OC(F)F)cc2o1 [Example 36, ((6-(difluoromethoxy)-2-(2-methyl-[1,1′-biphenyl]-3-yl)benzo[d]oxazol-5-yl)methyl)-L-proline] |  | 119 | 10200 | 0.5 | 9.3 | 0.1 to 10
6 | Cc1c(-c2ccccc2)cccc1-c1nc2cc(CN3CCOC[C@H]3C(=O)O)c(OC(F)F)cc2o1 [Example 39, (S)-4-((6-(difluoromethoxy)-2-(2-methyl-[1,1′-biphenyl]-3-yl)benzo[d]oxazol-5-yl)methyl)morpholine-3-carboxylic acid] | 1.1 | 121 | 31000 | 1 | 10.8 | 
7 | Cc1c(-c2nc3cc(CN4CCC[C@H]4C(=O)O)c(OC(F)F)cc3o2)cccc1-c1ccccc1F [Example 52, ((6-(difluoromethoxy)-2-(2′-fluoro-2-methyl-[1,1′-biphenyl]-3-yl)benzo[d]oxazol-5-yl)methyl)-L-proline] |  | 246 | 20700 | 2 | 7.72 | 10 to 100

From patent US20220041583A1, “IMMUNOMODULATORS, COMPOSITIONS AND METHODS THERE OF” (BETTA PHARMACEUTICALS CO., LTD, priority 2018, published 2022)
